Series [1] deals with patients with moderate to-high-risk atrial fibrillation. In words: ENGAGE-AF TIMI-48 phase 3 study of edoxaban versus warfarin in atrial fibrillation.
The test system of the next series is NVAF patients. The series is described as follows: Late phase-II trial targeting NVAF patient in Japan (thromboembolic and bleeding events, 12 weeks). The series is classed as in vivo, human. As to conditions: warfarin group (PT-INR adjusted to 2.0 to 3.0; 1.6 to 2.6 for 70 years or older), 12 weeks.
Where [2] appears, read: subgroup whose CLCR had become <30 mL/min during the trial, edoxaban 15 mg (N = 349), warfarin dose adjusted (N = 367).
Setting [3] is: warfarin, dose-adjusted to INR 2.0 to 3.0.

In the case of `CC(=O)CC(c1ccccc1)c1c(O)c2ccccc2oc1=O` (stereo not shown) [warfarin, reference compound], in series [1] (setting [2]), the “ACM (all cause mortality): # of events” value was determined as 13, the “Disabling Stroke: # of events” value turned out to be 3, the “Disabling Stroke: Event Rate” value was 0.48 %/yr and the “Fatal Bleed: # of events” value came to 2. Also, in series [1] (setting [2]), the “Fatal Bleed: Event Rate” value was 0.32 %/yr, the “Fatal SEE: # of events” value turned out to be 0, the “Fatal SEE: Event Rate” value worked out at 0.00 %/yr and the “Fatal Stroke: # of events” value is on record as 3. In series [1] (setting [2]), the “Fatal Stroke: Event Rate” value is reported as 0.48 %/yr; the “First Disabling or Fatal Stroke, Fatal SEE, LT or Fatal Bleed, or ACM: # of events” value is on record as 21; the “First Disabling or Fatal Stroke, Fatal SEE, LT or Fatal Bleed, or ACM: Event Rate” value was 3.36 %/yr; the “First Stroke, SEE or TIA: # of events” value was 14. For the same compound, in series [1] (setting [2]), the “First Stroke, SEE or TIA: Event Rate” value was 2.26 %/yr; the “First Stroke, SEE, Major Bleed, or ACM: # of events” value was determined as 49; the “First Stroke, SEE, Major Bleed, or ACM: Event Rate” value is given as 8.04 %/yr; the “LT Bleed (life threatening): # of events” value is 5. For the same compound, the “LT Bleed (life threatening): Event Rate” value in series [1] (setting [2]) is on record as 0.80 %/yr. Moreover, in series [1] (setting [3]), the “Annualized rate of death from cardiovascular causes” value worked out at 3.17%; the “Annualized rate of major bleeding” value was 3.43%; the “Annualized rate of the primary end point (stroke or systemic embolism) during treatment” value turned out to be 1.50%; the “Rate of the key secondary end point (composite of stroke, systemic embolism, or death from cardiovascular causes)” value worked out at 4.43%. Further, the “Incidence of bleeding events (major, clinically relevant non-major and minor bleeding in total)” value with NVAF patients is on record as 20.0%.

The values above are taken from patent publication US20140371262A1, “PREVENTIVE AND/OR THERAPEUTIC AGENT FOR THROMBOEMBOLISM IN THROMBOEMBOLISM PATIENT WITH SEVERE RENAL IMPAIRMENT” (Daiichi Sankyo Company, Limited, priority 2011, published 2014).
